This assay deals with STAT3 phosphorylation and STAT3 regulated genes (survivin, cyclin D1). As to the kind of experiment: Western immunoblotting of MDA-MB-468 cells (P-STAT3, survivin, cyclin D1). Format: cell-based, human. Particulars: 100 μM overnight, Western blot. On the procedure:
To assess the ability of lead γ-AA peptides to modulate the expression of STAT3 regulated genes, Western immunoblotting was carried out to determine the effect of γ-AA peptides on the expression levels of survivin and cyclin D1. Briefly, Western blots were prepared using cells that were harvested and lysed for 30 min on ice with occasional vortexing in 150 mM Hepes, pH 7.5, 150 mM NaCl, 1 mM EDTA, 0.5% NP-40, 10% glycerol, 5 mM NaF, 1 mM DTT, 1 mM PMSF, 2 mM Na3VO4, and 5 μg/ml leupeptin. Proteins readings were done using the Bradford protein assay, and equal amounts of protein for each sample were loaded into the wells of SDS-PAGE gels. After separation, proteins were transferred to nitrocellulose and Western blots were performed as previously described (Zhang, et al., A Novel Inhibitor of STAT3 Homodimerization Selectively Suppresses STAT3 Activity and Malignant Transformation. Cancer Research 2013, 73, 1922-1933).

This is an account of results in patent publication US10351596B2, “γ-AA-peptide STAT3/DNA inhibitors and methods of use” (H. Lee Moffitt Cancer Center and Research Institute, Inc., priority 2014, dated 2019).

Regarding S3I-1757, the “STAT3 phosphorylation (P-STAT3)” value is given as “blocked STAT3 phosphorylation”.
